Reference: ChEMBL document CHEMBL1129858, “Antitumor agents. 1771. Design, syntheses, and biological evaluation of novel etoposide analogs bearing pyrrolecarboxamidino group as DNA topoisomerase II inhibitors” (1997)

How the values were obtained:
[1] = Average in vitro cytotoxicity was calculated from all cell lines tested,; type: functional
M14 = assay: Tested for the in vitro cytotoxicity against M-14 melanoma; type: functional, Homo sapiens
NCI-H23 = assay: Tested for the in vitro cytotoxicity against NCI-H23 non-small cell lung cancer cell line; type: functional, Homo sapiens
HCC 2998 = assay: Tested for the in vitro cytotoxicity against HCC2998 colon cancer cell lines; type: functional, Homo sapiens
SF-295 = assay: Tested for the in vitro cytotoxicity against SF-295 CNS tumor cell lines; type: functional, Homo sapiens
MOLT-4 = assay: Tested for the in vitro cytotoxicity against MOLT-4 leukemia cell line; type: functional, Homo sapiens
OVCAR-8 = assay: Tested for the in vitro cytotoxicity against OVCAR-8 ovarian cancer cell lines,; type: functional, Homo sapiens
ACHN = assay: Tested for the in vitro cytotoxicity against ACHN renal cancer cell line; type: functional, Homo sapiens
[2] = Average in vitro cytotoxicity was calculated from all cell lines tested, activity expressed as average log TGI50.; type: functional; settings: read-out: Log TGI (converted)
DU-145 = assay: Tested for the in vitro cytotoxicity against DU-145 prostate cancer cell line; type: functional, Homo sapiens
[3] = Average in vitro cytotoxicity was calculated from all cell lines tested; type: functional
MCF7 = assay: Tested for the in vitro cytotoxicity against MCF-7 breast cancer cell line; type: functional, Homo sapiens
KB [4] = assay: Tested for the cellular protein DNA complex formation in KB cells at the concentration of 2.5 uM; type: functional, Homo sapiens
KB [5] = assay: Tested for the cellular protein DNA complex formation in KB cells at concentration of 25 uM; type: functional, Homo sapiens
[6] = target: DNA topoisomerase II (Homo sapiens) (UniProt P11388+Q02880); assay: Tested for the inhibition of DNA topoisomerase II; type: protein assay
KB [7] = assay: Tested for the cellular protein DNA complex formation in KB cells at concentration of 2.5 uM; type: functional, Homo sapiens
KB [8] = assay: Tested for the cellular protein DNA complex formation in KB cells at the concentration of 2.5 uM
KB [9] = assay: Tested for the cytotoxicity against KB-7d cellsTested for the cytotoxicity against KB cells; ID50/LD50 = 0.2/>10; type: functional, cell-based
KB [10] = assay: Tested for the cytotoxicity against KB cells; ID50/LD50 = 0.08/>10; type: functional, cell-based; settings: Homo sapiens

SMILES: COc1cc([C@@H]2c3cc4c(cc3[C@@H](NCCNCCO)[C@H]3COC(=O)[C@H]23)OCO4)cc(OC)c1O [listing 1 of 2 here]
- GI50 [1]: 1860 nM
- GI50 (M14): 4070 nM
- GI50 (NCI-H23): 661 nM
- GI50 (HCC 2998): 3390 nM
- GI50 (SF-295): 1020 nM
- GI50 (MOLT-4): 26.9 nM
- GI50 (OVCAR-8): 2400 nM
- GI50 (ACHN): 339 nM
- TGI [2]: 21400 nM
- GI50 (DU-145): 2290 nM
- LC50 [3]: 83200 nM
- GI50 (MCF7): 95.5 nM

SMILES: COc1cc([C@@H]2c3cc4c(cc3[C@@H](NCCNCCO)[C@H]3COC(=O)[C@H]23)OCO4)cc(OC)c1O [listing 2 of 2 here]
- GI50 [1]: 1350 nM
- GI50 (M14; Homo sapiens, M14): 3980 nM
- GI50 (NCI-H23; Homo sapiens, NCI-H23): 1320 nM
- GI50 (HCC 2998; Homo sapiens, HCC 2998): 1260 nM
- GI50 (SF-295): 178 nM
- GI50 (MOLT-4): < 10 nM
- GI50 (OVCAR-8; Homo sapiens, OVCAR-8): 2630 nM
- GI50 (ACHN): 2340 nM
- TGI [2]: 12000 nM
- GI50 (DU-145; Homo sapiens, DU-145): 2750 nM
- LC50 [3]: 66100 nM
- GI50 (MCF7): 38.9 nM

SMILES: CNCCN[C@@H]1c2cc3c(cc2[C@@H](c2cc(OC)c(O)c(OC)c2)[C@H]2C(=O)OC[C@@H]21)OCO3
- GI50 [1]: 240 nM
- GI50 (M14; Homo sapiens, M14): 398 nM
- GI50 (NCI-H23; Homo sapiens, NCI-H23): 162 nM
- GI50 (HCC 2998; Homo sapiens, HCC 2998): 269 nM
- GI50 (SF-295; Homo sapiens, SF-295): 29.5 nM
- GI50 (MOLT-4; Homo sapiens, MOLT-4): < 10 nM
- GI50 (OVCAR-8; Homo sapiens, OVCAR-8): 309 nM
- GI50 (ACHN; Homo sapiens, ACHN): 66.1 nM
- TGI [2]: 3020 nM
- GI50 (DU-145; Homo sapiens, DU-145): 363 nM
- LC50 [3]: 38900 nM
- GI50 (MCF7; Homo sapiens, MCF7): 14.4 nM

SMILES: COc1cc([C@@H]2c3cc4c(cc3[C@@H](NC(=O)NO)[C@H]3COC(=O)[C@H]23)OCO4)cc(OC)c1O
- GI50 [1]: 9770 nM
- GI50 (M14; Homo sapiens, M14): 37200 nM
- GI50 (NCI-H23; Homo sapiens, NCI-H23): 9330 nM
- GI50 (HCC 2998; Homo sapiens, HCC 2998): 4070 nM
- GI50 (SF-295; Homo sapiens, SF-295): 5010 nM
- GI50 (MOLT-4; Homo sapiens, MOLT-4): 4900 nM
- GI50 (OVCAR-8; Homo sapiens, OVCAR-8): 34700 nM
- GI50 (ACHN; Homo sapiens, ACHN): 6030 nM
- TGI [2]: 93300 nM
- GI50 (DU-145; Homo sapiens, DU-145): 7240 nM
- LC50 [3]: 100000 nM
- GI50 (MCF7; Homo sapiens, MCF7): 7760 nM

SMILES: COc1cc([C@@H]2c3cc4c(cc3[C@@H](O[C@@H]3O[C@@H]5CO[C@@H](C)O[C@H]5[C@H](O)[C@H]3O)[C@H]3COC(=O)[C@H]23)OCO4)cc(OC)c1O [ETOPOSIDE]
- Activity (KB [4]): 100%
- GI50 [1]: 9770 nM
- GI50 (M14; Homo sapiens, M14): 813 nM
- GI50 (NCI-H23; Homo sapiens, NCI-H23): 8320 nM
- Activity (KB [5]): 100%
- GI50 (HCC 2998; Homo sapiens, HCC 2998): 18200 nM
- GI50 (SF-295; Homo sapiens, SF-295): 10000 nM
- GI50 (MOLT-4; Homo sapiens, MOLT-4): 1020 nM
- GI50 (OVCAR-8; Homo sapiens, OVCAR-8): 16600 nM
- IC100 [6]: 100 µM
- GI50 (ACHN; Homo sapiens, ACHN): 871 nM
- TGI [2]: 77600 nM
- GI50 (DU-145; Homo sapiens, DU-145): 851 nM
- GI50 (MCF7; Homo sapiens, MCF7): 4370 nM

SMILES: COc1cc([C@@H]2c3cc4c(cc3[C@@H](Nc3ccc(NC(=O)c5cc([N+](=O)[O-])cn5C)cc3)[C@H]3COC(=O)[C@H]23)OCO4)cc(OC)c1O [listing 1 of 3 here]
- GI50 [1]: 100 nM
- GI50 (M14): 63.1 nM
- GI50 (NCI-H23): 38.9 nM
- GI50 (HCC 2998): 245 nM
- GI50 (SF-295): 138 nM
- GI50 (OVCAR-8): 126 nM
- GI50 (ACHN): 14.1 nM
- TGI [2]: 525 nM
- GI50 (DU-145): 14.4 nM

SMILES: COc1cc([C@@H]2c3cc4c(cc3[C@@H](Nc3ccc(NC(=O)c5cc([N+](=O)[O-])cn5C)cc3)[C@H]3COC(=O)[C@H]23)OCO4)cc(OC)c1O [listing 2 of 3 here]
- GI50 [1]: 123 nM
- GI50 (M14; Homo sapiens, M14): 45.7 nM
- Activity (KB [7]): 225%
- GI50 (NCI-H23; Homo sapiens, NCI-H23): 49 nM
- Activity (KB [5]): 100%
- GI50 (HCC 2998; Homo sapiens, HCC 2998): 224 nM
- GI50 (SF-295): 51.3 nM
- GI50 (MOLT-4; Homo sapiens, MOLT-4): < 10 nM
- GI50 (OVCAR-8; Homo sapiens, OVCAR-8): 97.7 nM
- GI50 (ACHN; Homo sapiens, ACHN): 11.8 nM
- TGI [2]: 1950 nM
- GI50 (DU-145; Homo sapiens, DU-145): 17 nM
- GI50 (MCF7; Homo sapiens, MCF7): < 10 nM

SMILES: COc1cc([C@@H]2c3cc4c(cc3[C@@H](Nc3ccc(NC(=O)c5cc([N+](=O)[O-])cn5C)cc3)[C@H]3COC(=O)[C@H]23)OCO4)cc(OC)c1O [listing 3 of 3 here]
- IC100 [6]: 12.5 µM

SMILES: COc1cc([C@@H]2c3cc4c(cc3[C@@H](Nc3ccc(NC(=O)c5cc(NC(=O)c6cc([N+](=O)[O-])cn6C)cn5C)cc3)[C@H]3COC(=O)[C@H]23)OCO4)cc(OC)c1O
- GI50 [1]: 1170 nM
- GI50 (M14; Homo sapiens, M14): 5500 nM
- GI50 (NCI-H23; Homo sapiens, NCI-H23): 724 nM
- Activity (KB [8]): 30%
- Activity (KB [5]): 26%
- GI50 (HCC 2998; Homo sapiens, HCC 2998): 6030 nM
- GI50 (SF-295; Homo sapiens, SF-295): 4900 nM
- Ratio (KB [9]): ID50/LD50 = 0.2/>10
- GI50 (MOLT-4; Homo sapiens, MOLT-4): < 10 nM
- GI50 (OVCAR-8; Homo sapiens, OVCAR-8): 759 nM
- IC100 [6]: 100 µM
- GI50 (ACHN; Homo sapiens, ACHN): 229 nM
- TGI [2]: 28800 nM
- Cytotoxicity (KB [10]): ID50/LD50 = 0.08/>10
- GI50 (DU-145; Homo sapiens, DU-145): 372 nM
- LC50 [3]: 81300 nM
- GI50 (MCF7; Homo sapiens, MCF7): 47.9 nM
